From patent US20220072098A1 (priority 2012, published 2022)
Entries after “also recorded” stand apart in the source; their conditions may differ.

Assays:
[1] = Preliminary toxicity studies of vesicles / bolas
AChE [2] = target: T1, AChE (Homo sapiens, UniProt P22303); experiment: Head group hydrolysis by AChE / choline esterases; assay type: biochemical
Protocol: FIG. 41: Hydrolysis of the ACh head group of bioamphiphiles GLH-20 and GLH-32 by AChE. Hydrolysis was measured by determining the pH change after addition of AChE to the incubation medium and was converted to change in the proton concentration.

[3] = CF concentration in brain after i.v. injection of CF-loaded vesicles; assay type: in vivo, mice; settings: 30 min
Protocol: Unless otherwise stated, animals were pretreated 15 min before the injection of the test material by pyridostigmine (o.5 mg/kg, i.m.) to inhibit peripheral ChE and thus, reduce vesicle decapsulation in the blood circulation before they enter the brain. The test material was injected i.v. into the tail vein in a volume of 100-200 µl per mouse.
The test material (either free CF or encapsulated CF) was injected into the tail vein of mice in a volume of up to 200 μl. The quantity of encapsulated CF was always determined prior to the administration and similar amounts of either encapsulated or free CF were injected. At 30 minutes after the injection, mice were anesthetized by Xylazine-Ketamine and blood was withdrawn through cardiac puncture, the mouse was perfused with 10 ml PBS and tissues were dissected out. The specimens were homogenized in PBS, deproteinated by 5% (final concentration) of tricholoro acetic acid (TCA), centrifuged and the supernatants were used for fluorescence measurements.
This experiment mesure accumulation of CF in the brain following i.v. administration. […] 30 min after the injection, the animals were sacrificed, perfused with 10 ml PBS and the brains removed and homogenized, deproteinized by 5% tricholoroacetic acid and fluorescence determined in the supernatants obtained following centrifugation. […]

[4] = Vesicle size and size distribution by dynamic light scattering (DLS); assay type: physicochemical
Protocol: Dynamic light scattering (DLS): Vesicle size and homogeneity was determined by DLS using HPPS-NIBS, light scattering apparatus (ALV-Laser, Langen, Germany) with the laser powered at 3 mW HE-Ne laser line (632.8 nm), at the Ilse Katz Institute for Nanoscale Science and Technology of BGU. Standard vesicle solutions were diluted 1:10 and loaded into a cuvette for light scattering measurements. The measurements were conducted at an angle of 173°, during 30-180 seconds, from different positions of the cell in order to avoid measurements of multiple scattering.
Zeta-potential measurements: Particle size and zeta potential were measured by using zeta potential and Particle size analyzer, ZetaPlus, (Brookhaven Instruments Corporation Ltd, NY, USA), in the range of 10-1000 nm, in the Chemistry Department of BGU. Vesicle solutions were diluted 1:10 in appropriate buffers and loaded into a 4 ml cuvette for light scattering measurements. The measurements were conducted at an angle of 90°, at 10 repeated measurements, and zeta potential was estimated as an average of 5 repeated readings.

AChE [5] = target: T1, AChE; experiment: Inhibition of ATC hydrolysis by AChE (Lineweaver-Burk analysis); assay type: biochemical; settings: three concentrations; Km affected, Vmax not
Protocol: In order to compare between the inhibitory potentials of the two bolaamphiphiles, the rate of ATC hydrolysis was measured in presence of three concentrations of the GLH compounds and assessed the results by a Lineweaver-Burk analysis.

[6] = Analgesia after i.v. injection of enkephalin, free or in vesicles; settings: i.v. analgesic peptide (enkephalin)
[7] = Albumin-FITC fluorescence in cerebral cortex after i.v. injection; assay type: in vivo; settings: mouse cerebral cortex fluorescence
Source text: FIG. 5A: Fluorescence in mouse cerebral cortex after i.v. injection of albumin-FITC (non-encapsulated); FIG. 5B: Fluorescence in mouse cerebral cortex after i.v. injection of albumin-FITC encapsulated in GLH-20 vesicles.

[8] = Vesicle stability in storage / PBS (CF encapsulation, size)
Protocol: Vesicle stability: To determine vesicle stability, samples of carboxyfluorescein (CF)-loaded vesicles (see below method for loading vesicles with CF and determination of percent encapsulation) were incubated in PBS and percent encapsulation was determined at different times.
To determine the stability of vesicles with encapsulated protein, vesicle samples were incubated in PBS and the percent encapsulation was determined at different times. Stability was also determined by changes in the vesicle size (by DLS, as was described in previous sections) at various time points after vesicle preparation.
Vesicle stability was evaluated by measuring both changes in the concentration of encapsulated carboxyfluorescein (CF) and vesicles size as a function of time when incubated in PBS at room temperature.
Vesicles were prepared from each of the above formulations by the method of film hydration followed by sonication as described above, and percent CF encapsulation was determined at different times in storage at 4° C.

[9] = Trypsinogen encapsulation in bolaamphiphilic vesicles (Sephadex column, UV or fluorescence); assay type: physicochemical; settings: 10 mg/ml GLH-19 + GLH-20 vesicles
[10] = system: SH-SYSY neuroblastoma cells; experiment: GDNF activity: activation of AKT and MAPK; assay type: cell-based, human; settings: 20 ng/ml hGDNF; free, encapsulated or added to empty vesicles; Western blot
Protocol: To determine the activity of GDNF, we measured the effect of 20 ng/ml hGDNF on the activation of the enzymes AKT and MAPK using SH-SYSY neuroblastoma cells (obtained from the ATTC). For this measurement, we plated the cells in 12 well plates coated with PEI at a density range of 3×10^5-6×10^5 cells/well 48 h prior to the bioassay. Cells were deprived of serum for 2.5 h, stimulated by the test material (plain medium as a control or free GDNF or encapsulated GDNF), washed once with ice-cold PBS and then lysed in […] sample buffer. The lysates were boiled, sonicated and centrifuged and then loaded onto 10% acrylamide gel for SDS-PAGE. After the electrophoresis, the samples were immune-blotted using antibodies against phospho-MAPK44/42 and against phospho-AKT.
The effect of the encapsulation process on GDNF activity was also examined by treating neuroblastoma cells that respond to GDNF by activation of kinases, particularly AKT and MAPK. […] AKT and MAPK are activated when they are phosphorylated and GDNF induces phosphorylation of these enzymes in SH-SY5Y neuroblastoma cells. If GDNF activity is impaired, it will not phosphorylate AKT and MAPK to pAKT and pMAPK, respectively. pAKT and pMAPK can be detected by specific antibodies for the phosphorylated forms of the enzymes on a Western blot.

[11] = Integrity of GDNF after encapsulation (SDS-PAGE); settings: monomeric and dimeric forms
Protocol: Sodium dodecyl sulfate polyacrylamide gel electrophoresis (SDS-PAGE) was used to examine whether the encapsulation process affects the integrity of the encapsulated GDNF. The test samples were applied on a 5%−/15% SDS-polyacrylamide gel and electrophoresis was performed using a running buffer of 14.4 g glycine and 3 g Tris base per Liter with […]. The gels were then stained by Coomasie blue using the Bio-Safe Coomassie staining protocol and then destained for 30 min in water.

[12] = GDNF encapsulation in bolaamphiphilic vesicles; assay type: physicochemical; settings: 12.5 μg/ml GDNF (AlexaFluor-488); 10 mg/ml GLH-19 + GLH-20 vesicles
Protocol: The encapsulation efficiencies of trypsinogen and GDNF were assessed by first running the sample through a Sephadex G-50 column to remove non-encapsulated protein from the encapsulated protein. The fractions obtained from the column (generally 0.5 ml per fraction) were treated by Triton X-100 reduced form to avoid interference with the absorbance reading of the encapsulated material at 280 nm. The concentration of trypsinogen or GDNF proteins was measured by either UV absorbance at 280 nm, or when the quantities of the proteins were low, the proteins were labeled with AlexaFluor®-488 (see procedure for labeling the proteins below) and their quantities determined by fluorescence spectroscopy. Percent encapsulation was determined by dividing the area under the curve of the vesicle fractions by the total area under the curve, which was the sum of the area under the curve of the vesicle preparation and the area under the curve of the free protein. With the use of a calibration curve the concentrations in each were determined. […]
Since GDNF would be used at sub milligram range and its spectroscopic absorption could not be accurately measured at these concentrations, therefore, fluorescent tagging was investigated as a means of increasing the sensitivity of the determination of low quantities of the encapsulated protein. […]

[13] = formulated with CHOL and CHEMS at a ratio of 2:1:1
[14] = vesicles from the bolaamphiphile without additives

T1 sequence (P22303 32-614): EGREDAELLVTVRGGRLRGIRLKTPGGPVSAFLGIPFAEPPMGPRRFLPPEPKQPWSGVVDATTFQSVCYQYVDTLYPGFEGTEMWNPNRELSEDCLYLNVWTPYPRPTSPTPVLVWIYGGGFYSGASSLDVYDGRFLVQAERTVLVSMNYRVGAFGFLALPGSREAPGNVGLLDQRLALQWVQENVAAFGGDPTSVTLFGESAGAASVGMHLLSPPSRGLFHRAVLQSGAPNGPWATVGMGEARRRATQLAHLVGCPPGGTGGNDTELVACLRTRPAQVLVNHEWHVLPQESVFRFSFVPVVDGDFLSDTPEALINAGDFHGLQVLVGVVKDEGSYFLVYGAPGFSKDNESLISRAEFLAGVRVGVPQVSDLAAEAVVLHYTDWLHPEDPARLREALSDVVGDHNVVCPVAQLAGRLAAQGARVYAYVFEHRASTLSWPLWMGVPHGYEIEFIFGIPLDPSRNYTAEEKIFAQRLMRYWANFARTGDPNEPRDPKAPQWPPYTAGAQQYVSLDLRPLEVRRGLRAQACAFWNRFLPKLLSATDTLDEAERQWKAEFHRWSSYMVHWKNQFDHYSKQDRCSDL

Molecule: CCCCCC(OC(=O)CCCC(=O)OCC[N+](C)(C)C)C(O)C/C=C\CCCCCCCC(=O)NCCCCCCCCCCNC(=O)CCCCCCC/C=C\CC(O)C(CCCCC)OC(=O)CCCC(=O)OCC[N+](C)(C)C.[Cl-].[Cl-] (stereo not drawn) [GLH-19]
- toxicity relative to GLH-20 [1]: less toxic
- hydrolysis of ACh head group by AChE / ChE (AChE [2]): not hydrolyzed by AChE

Molecule: carboxyfluorescein [free CF]
- brain penetration of free CF [3]: hardly entered the brain
- brain penetration of free CF ([3]; listed as Free CF): did not penetrate into the brain in significant amounts

Molecule: CCCCCC(OC(=O)C[N+](C)(C)CCOC(C)=O)C(O)C/C=C\CCCCCCCC(=O)NCCCCCCCCCCOC(=O)CCCCCCC/C=C\CC(O)C(CCCCC)OC(=O)C[N+](C)(C)CCOC(C)=O.[Cl-].[Cl-] (stereo not drawn) [GLH-20]
- Diameter (nm) [4, 13]: 120 nm
- Weight (%) main peak [4, 13]: 100%
- Diameter (nm) [4, 14]: 368 nm
- Weight of Main peak (%) [4, 14]: 97%
- hydrolysis of ACh head group by AChE / ChE (AChE [2]): hydrolyzed by choline esterases; also recorded: significantly faster
- type of inhibition of ATC hydrolysis by AChE (AChE [5]): competitive inhibitors

Molecule: free enkephalin: non-encapsulated enkephalin administered together with empty vesicles (YGGFL; Leu-enkephalin; UniProt P01210 230-234, looked up)
- analgesia [6]: not

Molecule: un-encapsulated albumin-FITC: albumin-FITC (non-encapsulated)
- brain accumulation of albumin-FITC [7]: little, if any, brain accumulation

Molecule: CCCCCC(OC(=O)C[N+](C)(C)CCOC(C)=O)C(O)C/C=C\CCCCCCCC(=O)NCCCCCCCCCCOC(=O)CCCCCCC/C=C\CC(O)C(CCCCC)OC(=O)C[N+](C)(C)CCOC(C)=O.[Cl-].[Cl-] (stereo not drawn) [GLH-20 (empty vesicles)]
- vesicle stability in storage [8]: stable in storage

Molecule: CCCCCCCCC(OC(=O)C[N+](C)(C)CCOC(C)=O)C(O)CCCCCCCC(=O)OCCCCCCCCCCOC(=O)CCCCCCCC(O)C(CCCCCCCC)OC(=O)C[N+](C)(C)CCOC(C)=O.[Cl-].[Cl-] (stereo not drawn) [GLH-32]
- Diameter (nm) [4, 13]: 134 nm
- Weight (%) main peak [4, 13]: 100%
- Diameter (nm) [4, 14]: 345 nm
- Weight of Main peak (%) [4, 14]: 68%
- hydrolysis of ACh head group by AChE / ChE (AChE [2]): hydrolyzed by AChE
- type of inhibition of ATC hydrolysis by AChE (AChE [5]): competitive inhibitors

B1: trypsinogen: model protein for GDNF, from bovine pancreas (protein, UniProt P00760 18-246, looked up)
pro-form: VDDDDKIVGGYTCGANTVPYQVSLNSGYHFCGGSLINSQWVVSAAHCYKSGIQVRLGEDNINVVEGNEQFISASKSIVHPSYNSNTLNNDIMLIKLKSAASLNSRVASISLPTSCASAGTQCLISGWGNTKSSGTSYPDVLKCLKAPILSDSSCKSAYPGQITSNMFCAGYLEGGKDSCQGDSGGPVVCSGKLQGIVSWGSGCAQKNKPGVYTKVCNYVSWIKQTIASN
modifications: pro-form
notes: model protein for GDNF, from bovine pancreas
- percent encapsulation ([9]; 50 μg/ml trypsinogen (AlexaFluor-488)): 54%
- percent encapsulation ([9]; 100 μg/ml trypsinogen (AlexaFluor-488)): 42%

B2: GDNF: glial cell line-derived neurotrophic factor, human (protein, UniProt P39905 78-211, looked up)
Glial cell line-derived …: SPDKQMAVLPRRERNRQAAAANPENSRGKGRRGQRGKNRGCVLTAIHLNVTDLGLGYETKEELIFRYCSGSCDAAETTYDKILKNLSRNRRLVSDKVGQACCRPIAFDDDLSFLDDNLVYHILRKHSAKRCGCI
- phosphorylation of AKT and MAPK [10]: same degree of phosphorylation
- GDNF integrity after encapsulation with sonication [11]: no fragmentation
- percent encapsulation [12]: 66%
